Experimental data published in patent publication US7709471B2, “Compounds” (AstraZeneca AB, priority 2006, dated 2010).

Target: recombinant Plk1 (Homo sapiens, UniProt P53350)
Assay: In Vitro Plk1 Enzyme Assay (SPA, GST-Cdc25C phosphorylation)
Assay type: biochemical
Details: ATP 64 nM, 90 minutes, read-out: IC50 (Plk1 enzyme inhibition)
Method: Reactions were stopped by addition of EDTA (110 mM) and the Cdc25C substrate captured via its GST tag to anti-GST antibody (Molecular Probes, Cat No A-5800) coated Protein A PVT SPA beads (Amersham Biosciences, Catalogue No. RPQ0019; 250 μg/well) in 50 mM HEPES pH7.5 buffer containing 0.05% (w/v) sodium azide and incubated for up to 2 hours, followed by the addition of 20 μl of 4M caesium chloride (final assay concentration of 1M). Plates were then left in the dark overnight before counting on a Packard TopCount NXT.
Radiolabelled phosphorylated substrate is formed in situ as a result of Plk1 mediated phosphorylation. The SPA beads contain a scintillant that can be stimulated to emit light. This stimulation only occurs when a radiolabelled phosphorylated substrate is bound to the surface of the coated SPA bead causing the emission of blue light that can be measured on a scintillation counter. Accordingly, the extent of Plk1 mediated Cdc25C phosphorylation was assessed. The raw assay data were then analysed by non-linear regression analysis and Plk1 enzyme inhibition for a given test compound is expressed as an IC50 value.

Chain of recombinant Plk1 (P53350 whole entry): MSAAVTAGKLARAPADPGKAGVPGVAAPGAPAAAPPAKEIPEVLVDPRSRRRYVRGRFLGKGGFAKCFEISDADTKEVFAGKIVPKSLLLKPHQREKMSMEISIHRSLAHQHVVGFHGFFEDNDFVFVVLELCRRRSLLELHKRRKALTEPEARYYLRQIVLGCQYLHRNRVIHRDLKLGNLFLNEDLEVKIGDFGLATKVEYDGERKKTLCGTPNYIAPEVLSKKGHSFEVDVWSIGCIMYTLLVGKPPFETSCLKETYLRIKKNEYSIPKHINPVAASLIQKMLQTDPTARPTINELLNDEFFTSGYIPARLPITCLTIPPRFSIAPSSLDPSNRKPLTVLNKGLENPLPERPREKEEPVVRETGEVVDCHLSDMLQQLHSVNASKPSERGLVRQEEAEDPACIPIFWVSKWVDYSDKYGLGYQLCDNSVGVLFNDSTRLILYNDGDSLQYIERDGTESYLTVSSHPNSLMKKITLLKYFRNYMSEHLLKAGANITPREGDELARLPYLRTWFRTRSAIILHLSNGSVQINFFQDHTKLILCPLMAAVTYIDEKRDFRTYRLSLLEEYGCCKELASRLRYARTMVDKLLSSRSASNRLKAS

## CN1CCC(NC(=O)c2ccc(Nc3ncc4c(n3)N(C3CCCC3)CCC(=O)N4)cc2)CC1 [Example 254, 4-[(6-cyclopentyl-3-oxo-2,6,8,10-tetrazabicyclo[5.4.0]undeca-8,10,12-trien-9-yl)amino]-N-(1-methyl-4-piperidyl)benzamide]
  IC50: < 100 µM

## CCCC1CN(C2CCCC2)c2nc(Nc3ccc(C(=O)NC4CCN(C)CC4)cc3OC)ncc2N(C)C1=O (single isomer, unassigned) [Example 239]
  IC50: < 100 µM

## COc1cc(C(=O)NC2CCCCC2)ccc1Nc1ncc2c(n1)N(CCN1CCCCC1)CCC(=O)N2C [Example 276, N-cyclohexyl-3-methoxy-4-[[6-methyl-5-oxo-2-[2-(1-piperidyl)ethyl]-2,6,9,11-tetrazabicyclo[5.4.0]undeca-7,9,11-trien-10-yl]amino]benzamide]
  IC50: < 100 µM

## CN1C(=O)CCN(C2CCCC2)c2nc(Nc3ccccc3-c3ccccc3)ncc21 [Example 148, 6-cyclopentyl-2-methyl-9-[(2-phenylphenyl)amino]-2,6,8,10-tetrazabicyclo[5.4.0]undeca-8,10,12-trien-3-one]
  IC50: < 100 µM

## CCCCc1ccccc1Nc1ncc2c(n1)N(C1CCCC1)CCC(=O)N2C [Example 151, 9-[(2-butylphenyl)amino]-6-cyclopentyl-2-methyl-2,6,8,10-tetrazabicyclo[5.4.0]undeca-8,10,12-trien-3-one]
  IC50: < 100 µM

## CN1C(=O)CCN(C2CCCC2)c2nc(Nc3ccccc3Cc3ccccc3)ncc21 [Example 157, 9-[(2-benzylphenyl)amino]-6-cyclopentyl-2-methyl-2,6,8,10-tetrazabicyclo[5.4.0]undeca-8,10,12-trien-3-one]
  IC50: < 100 µM

## COc1cc(C(=O)N[C@@H]2CC[C@H](C(=O)O)C2)ccc1Nc1ncc2c(n1)N(C1CCCC1)CCC(=O)N2C [Example 87, (1S,3R)-3-[[4-[(6-cyclopentyl-2-methyl-3-oxo-2,6,8,10-tetrazabicyclo[5.4.0]undeca-8,10,12-trien-9-yl)amino]-3-methoxy-benzoyl]amino]cyclopentane-1-carboxylic acid]
  IC50: < 0.3 µM

## CN1C(=O)CCN(C2CCCC2)c2nc(Nc3cccc(C(=O)c4ccccc4)c3)ncc21 [Example 169, 9-[(3-benzoylphenyl)amino]-6-cyclopentyl-2-methyl-2,6,8,10-tetrazabicyclo[5.4.0]undeca-8,10,12-trien-3-one]
  IC50: < 100 µM

## CN1C(=O)CCN(C2CCCC2)c2nc(Nc3cccc(S(C)(=O)=O)c3)ncc21 [Example 172, 6-cyclopentyl-2-methyl-9-[(3-methylsulfonylphenyl)amino]-2,6,8,10-tetrazabicyclo[5.4.0]undeca-8,10,12-trien-3-one]
  IC50: < 100 µM

## O=C1CCN(c2ccccc2)c2nc(Nc3ccc(C(=O)NCCN4CCOCC4)cc3)ncc2N1 [Example 249, N-(2-morpholin-4-ylethyl)-4-[(3-oxo-6-phenyl-2,6,8,10-tetrazabicyclo[5.4.0]undeca-7,9,11-trien-9-yl)amino]benzamide]
  IC50: < 100 µM

## COc1cc(C(=O)NCCN2CCCCC2)ccc1Nc1ncc2c(n1)N(C1CCCC1)CCC(=O)N2C [Example 12, 4-[(6-cyclopentyl-2-methyl-3-oxo-2,6,8,10-tetrazabicyclo[5.4.0]undeca-8,10,12-trien-9-yl)amino]-3-methoxy-N-[2-(1-piperidyl)ethyl]benzamide]
  IC50: < 1 µM

## O=C1CCN(c2ccccc2)c2nc(Nc3ccc(C(=O)NCCN4CCOCC4)cc3Cl)ncc2N1 [Example 247, 3-chloro-N-(2-morpholin-4-ylethyl)-4-[(3-oxo-6-phenyl-2,6,8,10-tetrazabicyclo[5.4.0]undeca-7,9,11-trien-9-yl)amino]benzamide]
  IC50: < 100 µM

## CN1C(=O)CCN(c2ccccc2)c2nc(Nc3ccc(C(=O)NCCN4CCOCC4)cc3Cl)ncc21 [Example 226, 3-chloro-4-[(2-methyl-3-oxo-6-phenyl-2,6,8,10-tetrazabicyclo[5.4.0]undeca-8,10,12-trien-9-yl)amino]-N-(2-morpholin-4-ylethyl)benzamide]
  IC50: < 1 µM
